Test results taken from patent US9303033B2, “Pyrazolopyrimidines and related heterocycles as CK2 inhibitors” (SENHWA BIOSCIENCES, INC., priority 2009, dated 2016).
Like-named read-outs stand apart in the source and are kept apart here.

Tests used:
[1] = tested on: BxPC3 human pancreatic adenocarcinoma cells; test: Cell proliferation assay with Alamar Blue (AB), BxPC3; assay type: cell-based
Description: (§1) A representative cell-proliferation assay protocol using Alamar Blue dye (stored at 4° C., use 20 ul per well) is described hereafter.
(§2) a. Split and trypsinize cells.
(§3) b. Count cells using hemocytometer.
(§4) c. Plate 4,000-5,000 cells per well in 100 μl of medium and seed into a 96-well plate according to the following plate layout. Add cell culture medium only to wells B10 to B12.
(§5) d. Add 100 μl of 2× drug dilution to each well in a concentration shown in the plate layout above. […] Total volume is 200 μl/well.
(§6) e. Incubate four (4) days at 37° C., 5% CO2 in a humidified incubator.
(§7) f. Add […] Alamar Blue reagent to each well.
(§8) g. Incubate for four (4) hours at 37° C., 5% CO2 in a humidified incubator.
(§9) h. Record fluorescence at an excitation wavelength of 544 nm and emission wavelength of 590 nm using a microplate reader.
(§10) In the assays, cells are cultured with a test compound for approximately four days, the dye is then added to the cells and fluorescence of […] dye is detected after approximately four hours. Different types of cells can be utilized in the assays (e.g., HCT-116 human colorectal carcinoma cells, PC-3 human prostatic cancer cells, MDA-MB231 human breast cancer cells, K-562 human chronic myelogenous leukemia (CML) cells, MiaPaca human pancreatic carcinoma cells, MV-4 human acute myeloid leukemia cells, and BxPC3 human pancreatic adenocarcinoma cells).

MDAMB453 = test: Cell proliferation assay with Alamar Blue (AB), MDAMB453; assay type: cell-based
Description: as §1, §2, §3, §4, §5, §6, §7, §8, §9, §10

CK2 ααββ = CK2 ααββ (Homo sapiens (Human), UniProt P68400); test: CK2 assay (cell-free, 33P-ATP, phosphocellulose filter plate); assay type: biochemical
recombinant human PIM2 = recombinant human PIM2 (Homo sapiens (Human), UniProt Q9P1W9); test: PIM-2 assay (33P-ATP filter binding); assay type: biochemical; conditions: for PIM2: % inh […]: at […] compound
[2] = Homo sapiens, BXPC-3, read-out: AB: BxPC3
[3] = Homo sapiens, MDA-MB-453, MDAMB453 cells, read-out: AB: MDAMB453
[4] = PIM2: IC50 (5 μM ATP), 5 μM ATP
[5] = MDAMB453 cells, read-out: AB: MDAMB453
[6] = read-out: PIM2: IC50 (5 μM ATP), 5 μM ATP
[7] = MDAMB453 cells, read-out: AB: MDAMB453 IC50

CK2 ααββ, sequence (P68400 whole entry): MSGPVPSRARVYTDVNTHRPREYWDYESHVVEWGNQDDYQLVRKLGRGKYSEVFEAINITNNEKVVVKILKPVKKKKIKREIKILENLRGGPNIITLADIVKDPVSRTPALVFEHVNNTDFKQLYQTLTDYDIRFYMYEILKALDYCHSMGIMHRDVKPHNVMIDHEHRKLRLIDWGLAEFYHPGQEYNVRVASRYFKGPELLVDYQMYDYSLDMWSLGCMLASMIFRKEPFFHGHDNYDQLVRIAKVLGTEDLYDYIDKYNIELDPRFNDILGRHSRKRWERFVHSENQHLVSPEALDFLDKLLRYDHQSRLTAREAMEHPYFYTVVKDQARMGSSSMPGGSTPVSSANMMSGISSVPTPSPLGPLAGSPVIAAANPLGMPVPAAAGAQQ
CK2 ααββ, sequence (P67870 whole entry partner): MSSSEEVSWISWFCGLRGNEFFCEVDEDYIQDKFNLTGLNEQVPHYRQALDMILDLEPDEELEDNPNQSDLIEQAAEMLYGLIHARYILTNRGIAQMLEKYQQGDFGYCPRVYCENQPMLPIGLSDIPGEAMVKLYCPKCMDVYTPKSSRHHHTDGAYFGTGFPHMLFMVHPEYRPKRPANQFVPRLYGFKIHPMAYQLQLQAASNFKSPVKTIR
recombinant human PIM2, sequence (Q9P1W9 whole entry): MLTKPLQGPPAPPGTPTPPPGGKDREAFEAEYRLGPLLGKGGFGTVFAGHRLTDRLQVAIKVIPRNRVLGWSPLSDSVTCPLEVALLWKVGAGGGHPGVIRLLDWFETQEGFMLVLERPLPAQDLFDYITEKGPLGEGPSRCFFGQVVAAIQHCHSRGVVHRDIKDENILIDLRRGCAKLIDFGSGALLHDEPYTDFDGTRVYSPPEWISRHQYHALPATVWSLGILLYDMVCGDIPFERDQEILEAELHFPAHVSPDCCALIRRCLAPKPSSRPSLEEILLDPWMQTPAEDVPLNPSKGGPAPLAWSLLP

IC50 [1, 2] | IC50 (MDAMB453; [3]) | IC50 (CK2 ααββ) | IC50 (recombinant human PIM2; [4]) | also measured | Compound
9.21 µM | 7.42 µM | < 0.1 µM | > 2.5 µM | – | Cc1ccc(Nc2cc(NCC3CC3)n3ncc(/C=C4\NC(=O)NC4=O)c3n2)nc1 [Example W1]
2.56 µM | 0.708 µM | < 1 µM | 0.704 µM | – | O=C1NC(=O)/C(=C/c2cnn3c(NCc4cccnc4)cc(Nc4cccc(Cl)c4)nc23)N1 [Example I6]
> 30 µM | 4.75 µM | < 0.01 µM | 0.867 µM | – | O=C1NC(=O)/C(=C/c2cnn3c(NC4CC4)cc(-c4cccc(F)c4)nc23)N1 [Example J4]
– | – | < 0.01 µM | – | IC50 ([1]; read-out: AB: BxPC3): 1 µM; IC50 (MDAMB453; [5]): 1.61 µM; IC50 (recombinant human PIM2; [6]): 1.45 µM | O=C1NC(=O)C(=Cc2cnn3c(NC4CC4)cc(-c4csc(CNC5CCCC5)c4)nc23)N1 [Compound B14]
19 µM | > 30 µM | < 1 µM | 0.198 µM | – | NCc1cccc(-c2cc(NC3CC3)n3ncc(/C=C4\SC(=O)NC4=O)c3n2)c1 [Example J5]
2.25 µM | 1.98 µM | < 0.01 µM | > 2.5 µM | – | CCCCS(=O)(=O)Nc1cccc(-c2cc(NC3CC3)n3ncc(/C=C4\NC(=O)NC4=O)c3n2)c1 [Example Y4]
15 µM | 1.04 µM | < 0.01 µM | > 2.5 µM | IC50 (recombinant human PIM2; read-out: PIM2: IC50): 1.3 µM | O=C1NC(=O)/C(=C/c2cnn3c(NC4CC4)cc(Nc4cccc(Cl)c4)nc23)N1 [Example C1]
1.84 µM | 0.435 µM | < 0.01 µM | > 2.5 µM | – | CN(C)CCNC(=O)c1cc(-c2cc(NC3CC3)n3ncc(/C=C4\NC(=O)NC4=O)c3n2)ccc1F [Example G5]
3.68 µM | 3.74 µM | < 0.01 µM | > 2.5 µM | – | NC(=O)c1cccc(-c2cc(NC3CC3)n3ncc(/C=C4\NC(=O)NC4=O)c3n2)c1 [Example U3]
– | – | < 0.01 µM | – | IC50 ([1]; read-out: AB: BxPC3): 10.2 µM; IC50 (MDAMB453; [5]): 2.5 µM; IC50 (recombinant human PIM2; [6]): > 2.5 µM | CN(C)C1CCN(Cc2cc(-c3cc(NC4CC4)n4ncc(C=C5NC(=O)NC5=O)c4n3)cs2)C1 (stereo not shown) [Compound Z13]
3.92 µM | 7.12 µM | < 0.01 µM | 2.48 µM | – | O=C1NC(=O)/C(=C/c2cnn3c(NC4CC4)cc(Nc4cccc(C(F)(F)F)c4)nc23)N1 [Example J1]
4.87 µM | 6.68 µM | < 0.01 µM | 0.359 µM | – | CC(C)(C)CC(=O)Nc1cc(NC2CC2)n2ncc(/C=C3\NC(=O)NC3=O)c2n1 [Example M2]
2.4 µM | 0.993 µM | < 0.01 µM | > 2.5 µM | – | O=C1NC(=O)/C(=C/c2cnn3c(NC4CCN(C(=O)C5CC5)CC4)cc(Nc4cccc(Cl)c4)nc23)N1 [Example L5]
1.92 µM | 0.717 µM | < 1 µM | 0.475 µM | – | O=C1NC(=O)/C(=C/c2cnn3c(NCCO)cc(Nc4cccc(Cl)c4)nc23)N1 [Example D6]
16.6 µM | 2.46 µM | < 0.1 µM | 1.18 µM | – | Nc1cc(Nc2cccc(Cl)c2)nc2c(/C=C3\NC(=O)NC3=O)cnn12 [Example A1, 5-((7-amino-5-(3-chlorophenylamino)pyrazolo[1,5-a]pyrimidin-3-yl)methylene)imidazolidine-2,4-dione]
> 30 µM | 12.3 µM | < 0.01 µM | 2.08 µM | – | CC(=O)c1cccc(-c2cc(NC3CC3)n3ncc(/C=C4\NC(=O)NC4=O)c3n2)c1 [Example W4]
10 µM | 0.874 µM | < 0.1 µM | > 2.5 µM | – | CC(C)(C)C(=O)N1CCC(Nc2cc(Nc3cccc(Cl)c3)nc3c(/C=C4\NC(=O)NC4=O)cnn23)CC1 [Example M5]

IC50 [1, 2] | IC50 (MDAMB453; [3]) | IC50 (CK2 ααββ) | IC50 (recombinant human PIM2; [4]) | also measured | Compound
– | – | < 0.01 µM | – | IC50 ([1]; read-out: AB: BxPC3 IC50): 20.9 µM; IC50 (MDAMB453; [7]): 10.7 µM; IC50 (recombinant human PIM2; Tables 41B, 42B, read-out: PIM2: IC50): > 2.5 µM | O=C1NC(=O)C(=Cc2cnn3c(NC4CC4)cc(Oc4cccc(Cl)c4)nc23)N1 [Compound U38]
– | – | < 0.01 µM | – | IC50 ([1]; read-out: AB: BxPC3 IC50): 15.2 µM; IC50 (MDAMB453; [7]): 6.29 µM; PIM2: % inh […] (recombinant human PIM2): 59.266% | Cc1c(Nc2ccc(C#N)cc2F)nc2c(C=C3NC(=O)NC3=O)cnn2c1NC1CC1 [Example C46]
– | – | < 0.01 µM | – | IC50 ([1]; read-out: AB: BxPC3): 0.929 µM; IC50 (MDAMB453; [5]): 1.39 µM; IC50 (recombinant human PIM2; [6]): > 2.5 µM | O=C1NC(=O)C(=Cc2cnn3c(NC4CC4)cc(-c4csc(CN5CCCC5)c4)nc23)N1 [Compound Y13]
5.76 µM | 2.04 µM | < 0.01 µM | > 2.5 µM | – | COc1cccc(Nc2cc(NC3CC3)n3ncc(/C=C4\NC(=O)NC4=O)c3n2)c1 [Example F1]
2.12 µM | 0.66 µM | < 0.01 µM | 0.708 µM | – | O=C1NC(=O)/C(=C/c2cnn3c(NC4CC4)cc(N4CC[C@@H](F)C4)nc23)N1 [Example P2]
12.3 µM | 2.2 µM | < 0.01 µM | 0.509 µM | – | O=C1NC(=O)/C(=C/c2cnn3c(NCC4CC4)cc(Nc4cccc(Cl)c4)nc23)N1 [Example T1]
2.58 µM | 1.94 µM | < 0.1 µM | 1.31 µM | – | O=C1NC(=O)/C(=C/c2cnn3c(NC4CC4)cc(-c4cccc(OCC5=NCCN5)c4)nc23)N1 [Example K4]
1.81 µM | 0.948 µM | < 0.01 µM | > 2.5 µM | – | O=C1NC(=O)/C(=C/c2cnn3c(NC4CC4)cc(-c4ccc(F)c(C(=O)N5CCOCC5)c4)nc23)N1 [Example F5]
> 30 µM | 1.15 µM | < 0.01 µM | > 2.5 µM | – | O=C1NC(=O)/C(=C/c2cnn3c(NCC(F)(F)F)cc(Nc4cccc(Cl)c4)nc23)N1 [Example O6]
23.6 µM | 1.05 µM | < 0.01 µM | > 2.5 µM | – | N#Cc1cccc(-c2cc(NC3CC3)n3ncc(/C=C4\NC(=O)NC4=O)c3n2)c1 [Example D4]
0.549 µM | 5.28 µM | < 0.01 µM | 0.0754 µM | – | CN(C)c1ccc(-c2cc(NC3CC3)n3ncc(/C=C4\NC(=O)NC4=O)c3n2)cn1 [Example P4]
10.6 µM | 0.33 µM | < 0.01 µM | 0.614 µM | – | O=C1NC(=O)/C(=C/c2cnn3c(NC4CC4)cc(-c4cccc(O)c4)nc23)N1 [Example S3]
1.54 µM | 0.402 µM | < 0.01 µM | 0.891 µM | – | O=C1NC(=O)/C(=C/c2cnn3c(NC4CC4)cc(-c4cccc(OC(F)(F)F)c4)nc23)N1 [Example T3]
1.23 µM | 17.1 µM | < 0.01 µM | > 2.5 µM | – | O=C1NC(=O)/C(=C/c2cnn3c(NC4CC4)cc(-c4ccnc(F)c4)nc23)N1 [Example O4]
5.17 µM | 0.477 µM | < 0.01 µM | 0.649 µM | – | O=C1NC(=O)/C(=C/c2cnn3c(NC4CC4)cc(-c4cccc(CO)c4)nc23)N1 [Example V3]
– | – | < 0.01 µM | – | IC50 ([1]; read-out: AB: BxPC3 IC50): > 30 µM; IC50 (MDAMB453; [7]): 24.2 µM; PIM2: % inh […] (recombinant human PIM2): 47.606% | Cc1c(Nc2cccc(Cl)c2)nc2c(C=C3NC(=O)NC3=O)cnn2c1NC1CC1 [Example B46]
